Test results from PMC5456363 (PLoS ONE, 2017).
Where “and” joins values, the source holds several entries; their conditions need not be identical. Equal values may be shown once. Entries after “also recorded” stand apart in the source; their conditions may differ. Non-standard residues stand in square brackets, D forms with d. Residues, ends and D or L forms follow the SMILES beside them. No end group written: not given here. *: point of attachment. Orn(α-tetramethylguanidino) = CN(C)C(=N[C@@H](CCCN)C(=O)*)N(C)C; Orn = NCCC[C@H](N)C(=O)O

How the values were obtained:
human α-thrombin = test: human α-thrombin; details: up to 24 hours
[1] = “activated serum” (AS): serum separator tubes incubated (room temperature, 1 h), centrifuged; details: CD-1 mice, 37°C, up to 60 min
[2] = pooled CD-1 mouse plasma containing lithium heparin (heparin plasma, HP); details: 37°C, up to 60 min
[3] = blood collected via cardiac puncture into a syringe containing the peptide solution (“blood”, B); details: CD-1 mice, 37°C, up to 60 min
[4] = Pooled mouse serum (PAA Laboratories), commercial serum (CS); details: 37°C, up to 60 min
[5] = pooled CD-1 mouse plasma containing K2EDTA (EDTA plasma, EP); details: 37°C, up to 60 min
[6] = “direct serum” (DS): blood in polypropylene tubes centrifuged immediately; details: CD-1 mice, 37°C, up to 60 min
[7] = Peptide stability in EDTA plasma (EP); assay type: in vitro ADME, CD-1 mouse; details: 37°C, 1 h, 31.5 μmol/L
Procedure: (§1) All stability tests were performed at least in triplicates.

[8] = Peptide stability in activated serum (AS); assay type: in vitro ADME, CD-1 mice; details: 37°C, 1 h, 31.5 μmol/L; for remaining at 1 h, 31.5 μmol/L: CD-1, mouse, read-out: intact peptide remaining relative to time zero
Procedure: as §1

[9] = cited from earlier work
[10] = Peptide stability in fresh blood taken by cardiac puncture into a syringe containing the peptide (blood, B); assay type: in vitro ADME, CD-1 mice; details: blood, 37°C, 1 h, 31.5 μmol/L; for remaining at 1 h: CD-1, mouse, fresh whole blood, read-out: intact peptide remaining relative to time zero
Procedure: as §1

[11] = Peptide stability in heparin plasma (HP); assay type: in vitro ADME, CD-1 mouse; details: 37°C, 1 h, 31.5 μmol/L
Procedure: as §1

[12] = Stability and metabolites across fresh blood, serum and plasma (all six matrices); details: for Overall stability / Sequential stability: fresh blood, serum, and plasma
Procedure: Aqueous peptide solutions (3 g/L) were filled in a sterile syringe (1 mL, Dispomed Witt oHG, Gelnhausen, Deutschland) through the front end, the stainless-steel needle was attached, and blood (200 to 300 μL) was collected via cardiac puncture to obtain a peptide concentration of approximately 31,5 μmol/L. The syringe was carefully disconnected from the needle and sealed while keeping the needle in the heart. A second empty syringe was attached to the needle and 0.5 to 0.8 mL blood were collected. In parallel, the sealed syringe was gently shaken for one minute to mix the peptide solution with blood and further incubated on a Stuart Rotator SB3 (Barloworld, Scientific LTD, Stone, Staffordshire, U.K.) placed in an incubator at 37°C. […] The plasma sample designated as “blood” (B) was precipitated with trichloroacetic acid (TCA), as described below. Blood collected in the second syringe was transferred to a polypropylene tube (Eppendorf AG, Hamburg, Germany) and a BD Microtainer® serum separator tube (SST; Becton, Dickinson and Company). Polypropylene tubes were centrifuged immediately (12,000 x g, 2 to 4 min) to obtain “direct serum” (DS) as supernatant, whereas the serum separator tubes were incubated (room temperature, 1 h), centrifuged (12,000 x g, 2 min), and collected as “activated serum” (AS). Pooled mouse serum was purchased from PAA Laboratories GmbH (Pasching, Austria) and pooled CD-1 mouse plasma containing K2EDTA or lithium heparin were obtained from Innovative Research (Novi, MI, USA).
Peptides were mixed with serum or plasma to a final concentration of 31.5 μmol/L and incubated (37°C, 750 rpm; Thermomixer, Eppendorf AG, Hamburg, Germany). Aliquots (20 or 40 μL) taken after 0 and 60 min (0, 10 and 30 min for Api88) were mixed with TCA to obtain a final concentration of 3% (w/v) and incubated on ice (10 min). After centrifugation (12,000 x g, 5 min), the supernatant was neutralized with sodium hydroxide (1 mol/L) and stored at −20°C. Samples were analyzed by RP-HPLC on a Jupiter C18-column (internal diameter: 2 mm, length: 150 mm, particle size: 5 μm, pore size: 30 nm) using a linear aqueous acetonitrile gradient containing TFA (0.1%, v/v) as ion pair reagent. Peptides were detected by recording the absorbance at 214 nm and quantified by their peak areas relative to the initial peak areas (0 min). All stability tests were performed at least in triplicates.
Metabolites were identified on an Agilent 1100 LC system (Agilent Technologies, Santa Clara, CA, USA) coupled on-line via a UV-detector (absorbance recorded at 214 nm) to the electrospray ionization source on an ion trap mass spectrometer (ESI-IT-MS, Esquire HCT, Bruker Daltonics GmbH, Bremen, Germany). Samples were separated on an Aqua C18-column (inner diameter: 2 mm, length: 150 mm, particle size: 3 μm, pore size: 12.5 nm, Phenomenex; column temperature: 60°C) at a flow rate of 0.2 mL/min using a linear gradient of aqueous acetonitrile in the presence of formic acid (FA; 0.1%, v/v) as ion pair reagent. […] The ESI-IT-MS was operated in positive ion mode. Ionization was carried out at 365°C (source temperature) using nitrogen as curtain gas (40 psi) and dry gas (9 L/min). Mass spectra were acquired for an m/z range from 400 to 1300 at a scan rate of 8100 m/z-units per second in standard enhanced mode.

[13] = Peptide stability in direct serum (DS); assay type: in vitro ADME, CD-1 mice; details: 37°C, 1 h, 31.5 μmol/L; for remaining at 1 h, 31.5 μmol/L: CD-1, mouse, direct serum (supernatant of blood centrifuged immediately), read-out: intact peptide remaining relative to time zero
Procedure: as §1

[14] = Peptide stability in commercial serum (CS); assay type: in vitro ADME, mouse; details: commercial mouse serum, 37°C, 1 h, 31.5 μmol/L; for remaining at 1 h, 31.5 μmol/L: commercial pooled serum, read-out: intact peptide remaining relative to time zero
Procedure: as §1

In the case of “gu-ONNRPVYIPRPRPPHPRL-NH2 ({Orn(α-tetramethylguanidino)}-NNRPVYIPRPRPPHPRL-NH2; SMILES CC[C@H](C)[C@H](NC(=O)[C@H](Cc1ccc(O)cc1)NC(=O)[C@@H](NC(=O)[C@@H]1CCCN1C(=O)[C@H](CCCNC(=N)N)NC(=O)[C@H](CC(N)=O)NC(=O)[C@H](CC(N)=O)NC(=O)[C@H](CCCN)N=C(N(C)C)N(C)C)C(C)C)C(=O)N1CCC[C@H]1C(=O)N[C@@H](CCCNC(=N)N)C(=O)N1CCC[C@H]1C(=O)N[C@@H](CCCNC(=N)N)C(=O)N1CCC[C@H]1C(=O)N1CCC[C@H]1C(=O)N[C@@H](Cc1c[nH]cn1)C(=O)N1CCC[C@H]1C(=O)N[C@@H](CCCNC(=N)N)C(=O)N[C@@H](CC(C)C)C(N)=O)”, the cleaved bond (human α-thrombin) is reported as “R17-L18, one hour”, the cleaved bond [1] is reported as “Arg17-Leu18, major” and the fragment found [1] is reported as “Api88(1–16)”. For the same molecule, the cleaved bond [2] was “Arg17-Leu18, major”, the cleaved bond [3] was “Arg17-Leu18, major” and the fragment found [3] was “Api88(1–16)”. For the same molecule, the cleaved bond [4] was “Arg17-Leu18, major”, the fragment found [4] was “Api88(1–16); gu-ONNRPVYIPRPRPPHP-OH” and the cleaved bond [5] was “Arg17-Leu18, major”. The cleaved bond [6] was “Arg17-Leu18, major” and the fragment found [6] was “Api88(1–16)”.
In the case of “H-VDKPPYLPRPRPPRRIYNR-NH2 [Onc18, VDKPPYLPRPRPPRRIYNR-NH2]”, the “intact peptide remaining relative to time zero” value [7] is given as “less than 13%”, the remaining at 1 h, 31.5 μmol/L [8] is given as 53 ± 4% and the serum half-life time ([9]; mouse serum) is given as 0.333 h and 0.417 h. The “fraction of peptide remaining in serum after 1 h, reported” value ([9]; serum, 1 h) was “around a quarter”, the remaining at 1 h [10] was 42 ± 12% and the “intact peptide remaining relative to time zero” value [11] was “less than 13%”. For the same molecule, the Overall stability [12] was “Medium”, the Sequential stability [12] was “Blood = Serum > Plasma” and the remaining at 1 h, 31.5 μmol/L [13] was 72 ± 4%. The “intact peptide remaining relative to time zero” value [14] was “less than 13%” and the remaining at 1 h, 31.5 μmol/L [14] was 12 ± 1%.
In the case of “VDKPPYLPRPRPPRrIYNr-NH2 (H-VDKPPYLPRPRPPR[dR]IYN[dR]-NH2)”, the not cleaved [1] is reported as “at least 96% remaining after 1 hour”, the not cleaved [2] is reported as “at least 96% remaining after 1 hour” and the not cleaved [3] is reported as “at least 96% remaining after 1 hour”. The not cleaved [4] was “less than 2% being degraded after 1 hour”, the not cleaved [5] was “at least 96% remaining after 1 hour” and the not cleaved [6] was “at least 96% remaining after 1 hour”.
With “VDKPPYLPRPRPPROIYNO-NH2 (H-VDKPPYLPRPRPPR[Orn]IYN[Orn]-NH2)” the cleaved bond [1] was “Arg14-Orn15, major; also recorded: Asn18-Orn19, major”, the cleaved bond [2] was “Arg14-Orn15, major; also recorded: Asn18-Orn19, major; also recorded: Orn15-Ile16” and the cleaved bond [3] was “Arg14-Orn15, major; also recorded: Asn18-Orn19, major”. For the same molecule, the cleaved bond [4] was “Arg14-Orn15, major; also recorded: Asn18-Orn19, major; also recorded: Orn15-Ile16”, the cleaved bond [5] was “Arg14-Orn15, major; also recorded: Asn18-Orn19, major; also recorded: Orn15-Ile16” and the cleaved bond [6] was “Arg14-Orn15, major; also recorded: Asn18-Orn19, major”.
In the case of H-VDKPPYLPRPRPPRRIYNR-NH2, the cleaved bond [1] is reported as “Arg14-Arg15, major”, the fragment found [1] is reported as “Onc18(1–18); VDKPPYLPRPRPPRRIYN-OH” and the cleaved bond [2] is reported as “Arg14-Arg15, major”. The fragment found [2] was “Onc18(2–14); DKPPYLPRPRPPR-OH”, the cleaved bond [3] was “Arg14-Arg15, major” and the fragment found [3] was “Onc18(1–18); VDKPPYLPRPRPPRRIYN-OH”. The cleaved bond [4] was “Arg14-Arg15, major; also recorded: Asn18-Arg19, major”, the cleaved bond [5] was “Arg14-Arg15, major” and the fragment found [5] was “Onc18(1–15); VDKPPYLPRPRPPRR-OH”. The cleaved bond [6] was “Arg14-Arg15, major” and the fragment found [6] was “Onc18(1–18); VDKPPYLPRPRPPRRIYN-OH”.
For DTEDKGEFLSEGGGVR, the fragment found [1] was “FPA(2–16); TEDKGEFLSEGGGVR; also recorded: FPA(3–16); EDKGEFLSEGGGVR”, the fragment found [3] was “FPA(2–16); TEDKGEFLSEGGGVR, one hour; also recorded: FPA(3–16); EDKGEFLSEGGGVR, one hour” and the fragment found [6] was “FPA(2–16); TEDKGEFLSEGGGVR; also recorded: FPA(3–16); EDKGEFLSEGGGVR”.
In the case of `CC[C@H](C)[C@H](NC(=O)[C@H](Cc1ccc(O)cc1)NC(=O)[C@@H](NC(=O)[C@@H]1CCCN1C(=O)[C@H](CCCNC(=N)N)NC(=O)[C@H](CC(N)=O)NC(=O)[C@H](CC(N)=O)NC(=O)[C@H](CCCN)N=C(N(C)C)N(C)C)C(C)C)C(=O)N1CCC[C@H]1C(=O)N[C@@H](CCCNC(=N)N)C(=O)N1CCC[C@H]1C(=O)N[C@@H](CCCNC(=N)N)C(=O)N1CCC[C@H]1C(=O)N1CCC[C@H]1C(=O)N[C@@H](Cc1c[nH]cn1)C(=O)N1CCC[C@H]1C(=O)N[C@@H](CCCN)C(=O)N[C@@H](CC(C)C)C(N)=O` [Api134, gu-ONNRPVYIPRPRPPHPOL-NH2] ({Orn(α-tetramethylguanidino)}-NNRPVYIPRPRPPHP[Orn]L-NH2), the “intact peptide remaining relative to time zero” value [7] is listed as at least 94%, the “intact peptide remaining relative to time zero” value [8] is listed as at least 94% and the “half-life time in mouse serum” value ([9]; in vitro, mouse serum) is listed as 4 h. For the same molecule, the “intact peptide remaining relative to time zero” value [10] was at least 94%, the “intact peptide remaining relative to time zero” value [11] was at least 94% and the Overall stability [12] was “High”. The Sequential stability [12] was “Blood = Plasma = Serum”, the “intact peptide remaining relative to time zero” value [13] was at least 94% and the remaining at 1 h, 31.5 μmol/L [14] was 78 ± 2%.
With “gu-ONNRPVYIPRPRPPHPRL-OH ({Orn(α-tetramethylguanidino)}-NNRPVYIPRPRPPHPRL-OH)” the fragment found (human α-thrombin) was “Api137(1–17), minor, 24 h”, the fragment found [1] was “Api137(1–17); also recorded: Api137(1–16); also recorded: Api137(1–15)” and the fragment found [2] was “Api137(1–17); also recorded: Api137(1–16); also recorded: Api137(1–15); also recorded: Api137(7–18)”. The fragment found [3] was “Api137(1–17); gu-ONNRPVYIPRPRPPHPR-OH; also recorded: Api137(1–16); also recorded: Api137(1–15); also recorded: Api137(7–18)”, the fragment found [4] was “Api137(1–17); gu-ONNRPVYIPRPRPPHPR-OH; also recorded: Api137(1–16); gu-ONNRPVYIPRPRPPHP-OH; also recorded: Api137(1–15)” and the not cleaved [5] was ≥94% (one hour). For the same molecule, the fragment found [6] was “Api137(1–17); gu-ONNRPVYIPRPRPPHPR-OH; also recorded: Api137(1–16); also recorded: Api137(1–15)”.
For `CC[C@H](C)[C@H](NC(=O)[C@H](CCCN)NC(=O)[C@H](CCCNC(=N)N)NC(=O)[C@@H]1CCCN1C(=O)[C@@H]1CCCN1C(=O)[C@H](CCCNC(=N)N)NC(=O)[C@@H]1CCCN1C(=O)[C@H](CCCNC(=N)N)NC(=O)[C@@H]1CCCN1C(=O)[C@H](CC(C)C)NC(=O)[C@H](Cc1ccc(O)cc1)NC(=O)[C@@H]1CCCN1C(=O)[C@@H]1CCCN1C(=O)[C@H](CCCCN)NC(=O)[C@H](CC(=O)O)NC(=O)[C@@H](N)C(C)C)C(=O)N[C@@H](Cc1ccc(O)cc1)C(=O)N[C@@H](CC(N)=O)C(=O)N[C@@H](CCCN)C(N)=O` [Onc72, VDKPPYLPRPRPPROIYNO-NH2] (H-VDKPPYLPRPRPPR[Orn]IYN[Orn]-NH2), the remaining at 1 h, 31.5 μmol/L ([7]; CD-1, mouse, pooled plasma containing K2EDTA, read-out: intact peptide remaining relative to time zero) is given as 47 ± 3%, the remaining at 1 h, 31.5 μmol/L [8] is given as 80 ± 12% and the serum half-life time ([9]; mouse serum) is given as 3 h. For the same molecule, the “peptide remaining in serum after one hour, previous study” value ([9]; serum, 1 h) was 80%, the remaining at 1 h [10] was 103 ± 11% and the remaining at 1 h, 31.5 μmol/L ([11]; CD-1, mouse, pooled plasma containing lithium heparin, read-out: intact peptide remaining relative to time zero) was 62 ± 8%. The Overall stability [12] was “Medium”, the Sequential stability [12] was “Blood = Serum > Plasma” and the remaining at 1 h, 31.5 μmol/L [13] was 94 ± 8%. For the same molecule, the remaining at 1 h, 31.5 μmol/L [14] was 64 ± 2%.
With “gu-ONNRPVYIPRPRPPHPOL-NH2 ({Orn(α-tetramethylguanidino)}-NNRPVYIPRPRPPHP[Orn]L-NH2)” the fragment found [1] was “Api134(1–17), minor; also recorded: Api134(1–15), minor; also recorded: Api134(7–18), minor”, the fragment found [2] was “Api134(7–18), minor” and the not cleaved [3] was ≥94% intact peptide (one hour). The fragment found [4] was “Api134(1–17); also recorded: Api134 (1–16); also recorded: Api134(7–18); YIPRPRPPHPOL-NH2, major; also recorded: Api134 (8–18); IPRPRPPHPOL-NH2, major” and the not cleaved [5] was ≥94% intact peptide (one hour).
For VDKPPYLPRPRPPRRIYN-OH [Onc18(1–18)], the “Matrix in which the metabolite was identified” value ([12]; LC-MS, peak area at least 1% of initially incubated peptide, B blood, DS direct serum, AS activated serum, CS commercial serum, EP EDTA plasma, HP heparin plasma, All = all six) was “B, DS, AS, CS”.
